Consider twelve compounds from the supplement of paper PMC11061612.

Holding throughout (assay): Bliss excess, mean over the matrix (fraction); higher = more synergy
In one experiment the test system is PA-1 (Ovarian Carcinoma). In short, it runs like this: (§1)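 Cell lines in DMEM/F12 or RPMI with 10% FBS were plated in 1536-well plates, held 24 hours at 37°C, 5% CO2, then given two-drug dose matrices for 72 hours (DMSO typically 0.2%). Viability was read by CellTiter-Glo 2.0 luminescence and scaled as inhibition from 0 (vehicle wells) to 1 (blank wells). Combination Emax is the second-highest inhibition in the matrix; Bliss excess is observed combination effect minus expected EA + EB − EA·EB, EA and EB being single-agent effects.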

Experiment [1] deals with MDST8 (Colorectal Carcinoma). A digest of the protocol:
as §1

For another experiment, the system named is GI-ME-N (Neuroblastoma). In short, it runs like this: as §1
The subject of experiment [2] is COLO-824 (Breast Carcinoma). In short, it runs like this:
as §1

Experiment [3] has as its system NCI-H1581 (Non-Small Cell Lung Carcinoma). A digest of the protocol:
as §1

Experiment [4] concerns CAPAN-2 (Pancreatic Carcinoma). A digest of the protocol: as §1

Take `CN(CCO)CC[C@H](CSc1ccccc1)Nc1ccc(S(=O)(=O)NC(=O)c2ccc(N3CCC([C@@H](O)c4ccccc4-c4ccc(Cl)cc4)CC3)cc2)cc1S(=O)(=O)C(F)(F)F` [AZD4320] + Cc1cc2ncnn2cc1Nc1ncc2c(n1)n(C1CCOCC1)c(=O)n2C [AZD7648] (first compound max 1 µM, 7x7, partner max 10 µM): the Bliss excess in the experiment on PA-1 (Ovarian Carcinoma) is 0.0302; in experiment [1] it was -0.0283; in the experiment with GI-ME-N (Neuroblastoma), -0.0775; in experiment [2], 0.006; in experiment [3], -0.0158; in experiment [4] it was -0.0217.

Regarding `CN(CCO)CC[C@H](CSc1ccccc1)Nc1ccc(S(=O)(=O)NC(=O)c2ccc(N3CCC([C@@H](O)c4ccccc4-c4ccc(Cl)cc4)CC3)cc2)cc1S(=O)(=O)C(F)(F)F` [AZD4320] + Cn1cnc2c(F)c(Nc3ccc(Br)cc3Cl)c(C(=O)NOCCO)cc21 [Selumetinib] (first compound max 1 µM, 7x7, partner max 3 µM), the Bliss excess in the experiment with PA-1 (Ovarian Carcinoma) is 0.144; in experiment [1], 0.0763; in the experiment with GI-ME-N (Neuroblastoma), 0.0196; in experiment [2], -0.0523; in experiment [3], 0.0408; in experiment [4], 0.0819.

In the case of `COc1nnc2ccc(N3CCC(c4ccc(OCCN5CCN(C)C(=O)[C@H]5C)cc4)CC3)nn12` [AZD5153] + C=CCn1c(=O)c2cnc(Nc3ccc(N4CCN(C)CC4)cc3)nc2n1-c1cccc(C(C)(C)O)n1 [AZD1775] (first compound max 1 µM, partner max 1 µM), the Bliss excess in the experiment on PA-1 (Ovarian Carcinoma) was -0.043; in experiment [1], -0.0455; with GI-ME-N (Neuroblastoma), -0.0231; in experiment [2], -0.0551; in experiment [3] it was -0.0029; in experiment [4], -0.0202.

Turning to `COc1nnc2ccc(N3CCC(c4ccc(OCCN5CCN(C)C(=O)[C@H]5C)cc4)CC3)nn12` [AZD5153] + CC1(C)CCC(CN2CCN(c3ccc(C(=O)NS(=O)(=O)c4ccc(NCC5CCOCC5)c([N+](=O)[O-])c4)c(Oc4cnc5[nH]ccc5c4)c3)CC2)=C(c2ccc(Cl)cc2)C1 [Venetoclax] (first compound max 1 µM, 7x7, partner max 1 µM), the Bliss excess was -0.077 in the experiment on PA-1 (Ovarian Carcinoma); -0.0566 in experiment [1]; -0.0955 in the experiment on GI-ME-N (Neuroblastoma); -0.0176 in experiment [2]; -0.115 in experiment [3]; -0.0149 in experiment [4].

Turning to `COc1nnc2ccc(N3CCC(c4ccc(OCCN5CCN(C)C(=O)[C@H]5C)cc4)CC3)nn12` [AZD5153] + CCN(CCO)CCCOc1ccc2c(Nc3cc(CC(=O)Nc4cccc(F)c4)[nH]n3)ncnc2c1 [AZD2811] (first compound max 1 µM, 7x7, partner max 1 µM), the Bliss excess with PA-1 (Ovarian Carcinoma) was 0.032; in experiment [1], 0.0761; with GI-ME-N (Neuroblastoma), 0.0022; in experiment [2], -0.0422; in experiment [3], -0.143; in experiment [4] it was -0.0286.

Take `COc1nnc2ccc(N3CCC(c4ccc(OCCN5CCN(C)C(=O)[C@H]5C)cc4)CC3)nn12` [AZD5153] + C[C@@H]1COCCN1C2=NC(=NC(=C2)C3(CC3)[S@](=N)(=O)C)C4=C5C=CNC5=NC=C4 [AZD6738] (first compound max 1 µM, 7x7, partner max 10 µM): the Bliss excess with PA-1 (Ovarian Carcinoma) is -0.0502; in experiment [1], 0.0544; with GI-ME-N (Neuroblastoma), 0.0858; in experiment [2], 0.0541; in experiment [3] it was 0.0013; in experiment [4], 0.0047.

`COc1nnc2ccc(N3CCC(c4ccc(OCCN5CCN(C)C(=O)[C@H]5C)cc4)CC3)nn12` [AZD5153] + Cc1c2c(nn1C)CSCc1cc(n(C)n1)CSc1cc(c3ccccc3c1)OCCCc1c(C(=O)O)n(C)c3c-2c(Cl)ccc13 [AZD5991] (first compound max 1 µM, 7x7, partner max 1 µM): the Bliss excess with PA-1 (Ovarian Carcinoma) was 0.0109; in experiment [1] it was 0.0069; in the experiment with GI-ME-N (Neuroblastoma) it was -0.0142; in experiment [2], -0.0584; in experiment [3] it was -0.0739; in experiment [4] it was -0.0078.

On to `COc1nnc2ccc(N3CCC(c4ccc(OCCN5CCN(C)C(=O)[C@H]5C)cc4)CC3)nn12` [AZD5153] + Cn1cnc2c(F)c(Nc3ccc(Br)cc3Cl)c(C(=O)NOCCO)cc21 [Selumetinib] (first compound max 1 µM, 7x7, partner max 10 µM), for which the Bliss excess was 0.0002 in the experiment with PA-1 (Ovarian Carcinoma); 0.0646 in experiment [1]; -0.0636 in the experiment on GI-ME-N (Neuroblastoma); 0.007 in experiment [2]; -0.0141 in experiment [3]; 0.0202 in experiment [4].

Consider `Cc1c2c(nn1C)CSCc1cc(n(C)n1)CSc1cc(c3ccccc3c1)OCCCc1c(C(=O)O)n(C)c3c-2c(Cl)ccc13` [AZD5991] + C1CN(CCC1(C(=O)N[C@@H](CCO)C2=CC=C(C=C2)Cl)N)C3=NC=NC4=C3C=CN4 [Capivasertib] (first compound max 1 µM, 7x7, partner max 3 µM), for which the Bliss excess with PA-1 (Ovarian Carcinoma) is 0.0437; in experiment [1], -0.0102; with GI-ME-N (Neuroblastoma), -0.0245; in experiment [2], 0.01; in experiment [3], -0.0048; in experiment [4] it was 0.0085.

Take `Cc1c2c(nn1C)CSCc1cc(n(C)n1)CSc1cc(c3ccccc3c1)OCCCc1c(C(=O)O)n(C)c3c-2c(Cl)ccc13` [AZD5991] + C=CCn1c(=O)c2cnc(Nc3ccc(N4CCN(C)CC4)cc3)nc2n1-c1cccc(C(C)(C)O)n1 [AZD1775] (first compound max 1 µM, partner max 1 µM): the Bliss excess is -0.0288 with PA-1 (Ovarian Carcinoma); 0.0087 in experiment [1]; 0.0646 in the experiment with GI-ME-N (Neuroblastoma); -0.0593 in experiment [2]; -0.0365 in experiment [3]; 0.0292 in experiment [4].

Take `Cc1c2c(nn1C)CSCc1cc(n(C)n1)CSc1cc(c3ccccc3c1)OCCCc1c(C(=O)O)n(C)c3c-2c(Cl)ccc13` [AZD5991] + CC1(C)CCC(CN2CCN(c3ccc(C(=O)NS(=O)(=O)c4ccc(NCC5CCOCC5)c([N+](=O)[O-])c4)c(Oc4cnc5[nH]ccc5c4)c3)CC2)=C(c2ccc(Cl)cc2)C1 [Venetoclax] (first compound max 1 µM, 7x7, partner max 1 µM): the Bliss excess is 0.0664 in the experiment on PA-1 (Ovarian Carcinoma); -0.0359 in experiment [1]; -0.0408 in the experiment on GI-ME-N (Neuroblastoma); 0.11 in experiment [2]; -0.0061 in experiment [3]; -0.0292 in experiment [4].

On to `Cc1c2c(nn1C)CSCc1cc(n(C)n1)CSc1cc(c3ccccc3c1)OCCCc1c(C(=O)O)n(C)c3c-2c(Cl)ccc13` [AZD5991] + CCN(CCO)CCCOc1ccc2c(Nc3cc(CC(=O)Nc4cccc(F)c4)[nH]n3)ncnc2c1 [AZD2811] (first compound max 1 µM, 7x7, partner max 1 µM), for which the Bliss excess with PA-1 (Ovarian Carcinoma) was 0.0489; in experiment [1] it was 0.0586; in the experiment on GI-ME-N (Neuroblastoma), 0.0116; in experiment [2] it was -0.0156; in experiment [3] it was 0.108; in experiment [4], -0.0133.
